Among the data in BindingDB's records for doi:10.3109/14756366.2011.572879 (Ataturk University, 2012) are IC50 and Ki values, retold here.

The target in the experiment is T1, Glutathione reductase, mitochondrial (Homo sapiens, UniProt P00390).
T1 sequence (P00390 whole entry): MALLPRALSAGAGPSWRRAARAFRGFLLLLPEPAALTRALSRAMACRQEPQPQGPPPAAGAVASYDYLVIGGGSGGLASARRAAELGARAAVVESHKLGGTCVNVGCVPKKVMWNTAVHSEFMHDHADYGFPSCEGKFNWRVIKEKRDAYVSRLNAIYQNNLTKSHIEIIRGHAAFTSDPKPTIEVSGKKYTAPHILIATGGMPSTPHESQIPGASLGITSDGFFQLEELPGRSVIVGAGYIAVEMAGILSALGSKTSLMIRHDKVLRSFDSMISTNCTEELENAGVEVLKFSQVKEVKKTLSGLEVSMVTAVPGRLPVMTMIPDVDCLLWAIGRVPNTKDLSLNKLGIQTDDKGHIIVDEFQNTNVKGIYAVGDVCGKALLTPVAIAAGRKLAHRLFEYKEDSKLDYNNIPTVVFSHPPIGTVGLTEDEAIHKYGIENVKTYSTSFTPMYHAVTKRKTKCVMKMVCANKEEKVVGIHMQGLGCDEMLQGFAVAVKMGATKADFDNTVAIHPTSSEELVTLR
The experiment can be described thus: Activity Assay. Particulars: pH 8; 25 °C. How it is done: The assay system contained 40 mM Tris-HCl buffer, pH 8.0, including 0.8 mM EDTA, 1 mM GSSG and 0.1 mM NADPH in 1 mL total reaction volume. The activity was measured by monitoring the decrease in absorbance at 340 nm due to the oxidationof NADPH at 25°C. One enzyme unit is defined as the oxidation of […] NADPH per min under the assay conditions.

The structures appear in SMILES notation. Structures can show the parent of a compound that is named as a salt.

On to `CN1CCC(=C2c3ccccc3CC(=O)c3sccc32)CC1` [(Z)-2-butenedioate;10-(1-methyl-4-piperidinylidene)-5H-benzo[1,2]cyclohepta[3,4-b]thiophen-4-one], for which half-maximal inhibition (IC50) required 12 µM and the Ki was 0.8 µM.

`O=C(O)CN(CCN(CC(=O)O)CC(=O)O)CCN(CC(=O)O)CC(=O)O` [Gadopentetic acid] had a Ki of 28800 µM.

As to `OC(CNc1ccccn1)c1ccccc1` (stereo not given) [Phenyramidol-HCl], it took 990 µM to reach half-maximal inhibition (IC50) and the Ki was found to be 434 µM.
